We go through 4 molecules from patent US20050038259A1, “Hydroxyeicosenoic acid anaglogs” (priority 2001, published 2005).

One assay deals with Rat neutrophils. Description: Test for elastase production by fMLP stimulation (elastase release inhibition). The assay is classed as cell-based. The note with it: Neutrophil; elastase release from cytochalasin B-primed rat neutrophils stimulated with fMLP (1 μM); elastase activity in supernatant. As to the method:
Rat neutrophils preparation was obtained 15-18 hrs after intraperitoneal injection of a 1% sterile casein solution in saline (120 mL/kg). Cells were harvested by peritoneal lavage after the decapitation. The lavage fluid was ice-cold PBS (Phosphate-Buffered Saline). Peritoneal exudates were pooled, centrifuged and suspended in HBSS (Hanks' Balanced Salt Solution) at 1×10^7 cells/mil. Cytochalasin B (final concentration: 5 μg/ml) were added to prime the cells. The cells were added into a 96-well culture plate (190 μL/well) and then the compounds of the present invention at various concentrations (10^−7 to 3×10^−5 M) were added and incubated at 37° C. in an atmosphere of 5% CO2 in air. After 10 minutes, fMLP (20 μM, 10 μL) was added, while 10 μL of an HBSS solution containing 0.4% ethanol was added to the group to which no fMLP was added. After gently stirring, cells were incubated for further 10 minutes. The reaction was stopped on ice, and an incubated supernatant was recovered by centrifugation.
Elastase activity in the incubated supernatant was measured using a specific elastase substrate, N-succinyl-L-alanyl-L-alanyl-L-proline-valine-MCA (Peptide Institute, Inc., Osaka), 0.12 mM in 50 mM Tris-HCl (pH 8.0). Fifty microliter of an incubated supernatant was added to the substrate solution (50 μL) and incubated at 37° C. for 30 minutes. Elastase activity was assayed at a wavelength of 360 nm at excitation and 480 nm at emission.
Elastase release-inhibiting activity (inhibition ratio) was calculated according to the following equation: Inhibition ratio (%)={1−(A−C)/(B−C)}×100 wherein A stands for a fluorescence intensity when […]; and C stands for a fluorescence intensity when fMLP (1 μM) was not added.
Inhibitory concentration of 50% (IC50 value) of the compound of the invention was calculated with a concentration-inhibition ratio curve.

Assay [1] concerns Rat transient MCA occlusion (t-MCAo) model. In words: Infarct volume in rat transient MCA occlusion (t-MCAo) model. The note with it: intravenous 1 hour infusion immediately after reperfusion. The class given is in vivo. As for the experimental part:
FIG. 1 represents an effect of the compound 50 on infarct volume in rat t-MCAo model. The infarct volumes of total (closed bar), cortex (solid bar) and sub-cortex (open bar) were determined 71 hrs after reperfusion. Data are presented as mean ±SEM. *p<0.05 vs vehicle-treated group (Dunnett's test).
Adult male Wistar rats (200-250 g) were anesthetized with 2% halothane in air. The right internal carotid artery (ICA) was carefully dissected. A silicon-coated suture (18 mm-long) was inserted to the ICA. Body temperature was maintained at 37° C. with a heating pad. […] After 1 hour of MCA occlusion, the thread was removed to allow reperfusion of the ischemic area. Rats were received intravenously 1 hour-infusion of vehicle (10% of HP-β-CD) or the compound 50 dissolved in vehicle immediately after reperfusion.
To measure infarct volume, rats were killed at 71 hours of reperfusion. Brains were perfused transcardially with physiological saline, and removed from skulls, cut into 2-mm coronal sections. The slices were immersed in 2% triphenyltetrazolium chloride (TTC) solution at 37° C. for 30 minutes.
All values were presented as mean ±SEM. For statistical analyses, Dunnett's multiple-range test was used.

pIC50: −log10 of the molar value.

Broadly, the pIC50 is the IC50 on a negative log10 scale, so that one unit is a factor of ten. A high value points to a low IC50. `CCCC[C@@H](O)C#CCCCCCCCCCCCCCC(=O)O` [Compound 4, (R)-17-Hydroxyheneicos-15-ynoic acid] showed a negative logarithm of the IC50 (pIC50) in the assay with Rat neutrophils of 4.99.
The molecule `CCCC[C@@H](O)C#CCCCCCCCCCCCCC(=O)O` [Compound 12, (R)-16-Hydroxyeicos-14-ynoic acid] showed a pIC50 with Rat neutrophils of 5.04.
In the assay on Rat neutrophils, `CCCC[C@@H](O)/C=C\CCCCCCCCCCCCC(=O)O` [Compound 50, (R)-(Z)-16-Hydroxyeicos-14-enoic acid] showed a pIC50 of 5.08. Besides, the “reduction of total infarct volume as compared with vehicle-treated group” value in assay [1] (0.01 mg/kg/min, 71 hours of reperfusion, significant) was determined as 35.3%. Moreover, the “effect on infarct volume” value in assay [1] (from 0.001 mg/kg/min, doses 0.001, 0.01, 0.1 mg/kg/min) is on record as “reduced the infarct volume”.
`CCCC[C@@H](O)/C=C\CCCCCCCCCCCC(=O)O` [Compound 65, (R)-(Z)-15-Hydroxynonadec-13-enoic acid] gave a pIC50 in the assay on Rat neutrophils of 4.76.
